The conditions of data set [1]: clinical studies, cited from earlier work.
Data set [2] deals with bone marrow colony forming units / hematopoietic stem cells. Nature of the data set: Bone marrow colony forming units and hematopoietic stem cell content in irradiated mice. The data set is classed as in vivo, B6 mice. The conditions noted are these: 772 cGy. The procedure: In a second experiment, a sub-group of animals were euthanized on day 7, n=3 per cohort. Bone marrows were flushed and CFUs were performed.
B6 mice underwent 772 cGy irradiation and a daily total dose of 400 mcg/kg/day of PTH.
One group of animals was euthanized on day 3 (n=3) one group on day 7 (n=4) and one group (n=3) on day 28.
Bone marrow was analyzed for colony forming units (CFU) (FIGS. 9A and 9B), hematopoietic stem cell content. Serum was analyzed for PTH levels on the final day of the study to determine the duration of detectable PTH in the serum following the final dose.
Mice underwent exposure to 772 cGy radiation and were randomized to treatment of daily PTH 400 mcg/kg or saline. On days 3 (n=3) and 7 (n=4) bone marrow was analyzed for colony forming units.
Following irradiation with 772 cGy, mice underwent bone marrow analysis on days 3 (n=3) or 7 (n=4) for hematopoietic stem cell content. […] (FIG. 11)

For data set [3], the system named is bone marrow colony forming units / CD34+ hematopoietic stem cells. The experiment in a line: Bone marrow CFU and CD34+ cells in non-irradiated monkeys 24 hours after first PTH dose. Format: in vivo, cynomolgus monkeys. The conditions noted are these: non-irradiated CYNOs. As to the method: Two cynomolgus monkeys (hereafter referred to as CYNOs) were treated with a 21 day course of daily subcutaneous PTH at either 100 mcg/kg (monkey 7801) or 50 mcg/kg (monkey 7872). Hematopoietic outcome measures included:
(a) bone marrow analysis for colony forming units 24 hours after first dose of PTH;
(b) bone marrow analysis for CD34+ hematopoietic stem cells 24 hours after first dose of PTH;

Data set [4] concerns rat. Particulars: prolonged daily dosing, 4 months-2 years; cited from earlier work.

Entries after “also recorded” stand apart in the source; their conditions may differ.

Turning to `CC[C@H](C)[C@H](NC(=O)[C@H](CCC(=O)O)NC(=O)[C@H](CO)NC(=O)[C@@H](NC(=O)[C@@H](N)CO)C(C)C)C(=O)N[C@@H](CCC(N)=O)C(=O)N[C@@H](CC(C)C)C(=O)N[C@@H](CCSC)C(=O)N[C@@H](Cc1cnc[nH]1)C(=O)N[C@@H](CC(N)=O)C(=O)N[C@@H](CC(C)C)C(=O)NCC(=O)N[C@@H](CCCCN)C(=O)N[C@@H](Cc1cnc[nH]1)C(=O)N[C@@H](CC(C)C)C(=O)N[C@@H](CC(N)=O)C(=O)N[C@@H](CO)C(=O)N[C@@H](CCSC)C(=O)N[C@@H](CCC(=O)O)C(=O)N[C@@H](CCCN=C(N)N)C(=O)N[C@H](C(=O)N[C@@H](CCC(=O)O)C(=O)N[C@@H](Cc1c[nH]c2ccccc12)C(=O)N[C@@H](CC(C)C)C(=O)N[C@@H](CCCN=C(N)N)C(=O)N[C@@H](CCCCN)C(=O)N[C@@H](CCCCN)C(=O)N[C@@H](CC(C)C)C(=O)N[C@@H](CCC(N)=O)C(=O)N[C@@H](CC(=O)O)C(=O)N[C@H](C(=O)N[C@@H](Cc1cnc[nH]1)C(=O)N[C@@H](CC(N)=O)C(=O)N[C@@H](Cc1ccccc1)C(=O)O)C(C)C)C(C)C` [PTH, Teriparatide], the toxic effect entry in data set [1] (even with chronic treatment) is reported as “no toxic effect”. For the same compound, the “biological potency vs full-length PTH protein” value in data set [1] is recorded as “comparable biological potency”. For the same compound, in data set [2] (PTH 400 mcg/kg/day x 7 days, euthanized on day 7, n=3 per cohort, compared to other groups), the “CFU capabilities of bone marrow” value is “greatest preservation of CFU capabilities; also recorded: preserves CFU”. The “CFU-GM and CFU-M in bone marrow” value in data set [2] (daily PTH 400 mcg/kg vs saline, days 3 and 7) is “increased with PTH therapy”. In data set [2] (daily PTH 400 mcg/kg, day 3), the “bone marrow hematopoietic stem cell content, treatment vs control” value is “no statistical significance”. The “increase in bone marrow stem cell content” value in data set [2] (daily PTH 400 mcg/kg, day 7) worked out at 5 fold. The “BFU and CFU-GEMM in bone marrow” value in data set [2] (daily PTH 400 mcg/kg, trend more pronounced on day 7) is “increased with PTH treatment”. Also, the “CFU-GM and CFU-M in bone marrow aspirates” value in data set [3] (50 or 100 mcg/kg, 24 hours after first dose, more pronounced with higher dose) was “increases”. In data set [3] (50 or 100 mcg/kg, after first dose), the “Erythroid, megakaryocyte lineages (BFU, CFU-GEMM) in bone marrow aspirate” value is recorded as “increase”. The “bone marrow analysis, all lineages, by PTH dose” value in data set [3] (50 vs 100 mcg/kg) is “dose response”. In data set [3] (24 hours after first dose), the “percent of CD34+ hematopoietic stem cells vs pre-treatment levels” value is reported as “increases”. Further, the “doses at which toxicity was observed” value in data set [4] is “exceeding 75 mcg/kg”.

Source of the values: patent US20110178016A1, “PULSE PARATHYROID HORMONE FOR TREATMENT OF THE HEM[…], STROMAL CELL LOSS, AND VASCULAR INJURY RESULTING FROM ACUTE EXPOSURE TO LETHAL RADIATION” (priority 2008, published 2011).
